Test results from patent US6054474A, “Heterocyclic compounds for the treatment of pain and use thereof” (Biochem Pharma, Inc., priority 1995, dated 2000).

How the values were obtained:
[1] = test system: mice; experiment: Hot Plate Assay in mice; type: in vivo
Method: (§1) Antinociceptive activity of compounds of the invention was determined in vivo in a PBQ writhing model and in the hot plate test in rodents. Inhibition of PBQ (phenyl-.rho.-benzoquinone) induced writhing in mice is an assessment of both central and peripherally-mediated analgesia. For experimental protocol see Sigmund et al., Proc. Soc. Ex. Biol. Med., 95, p. 729 (1957) which is incorporated herein by reference. Centrally-mediated analgesia was determined by the inhibition of a hot plate response in mice. For experimental protocol see G. Woolfe and A. Macdonald, J. Pharmacol. Exp. Ther., 80, p. 300 ([…]) which is incorporated herein by reference. Assays measuring opioid receptor binding affinities for μ, δ and κ receptors as well as GPI and MVD assays were determined through experimental protocol set out in Schiller et al., Biophys. Res. Commun., 85, p. 1322 (1975); Rothman et al, Peptides, Vol 11, pp 311-331, 1990; Kaffa et al, Peptides 15(3), 401-404, 1994; Fowler et al, Neurochem. Int 24(5), 401-426, 1994; and Leslie F., Pharmacological Review 39(3), 197-249, 1987 incorporated herein by reference.
For this test, CD #1 male mice (Charles River) weighing between 20-25 grams were used. The mice were weighed, identified, and randomized into groups of 10.
The mice were usually treated by subcutaneous injection of the compound (or the standard or vehicle) or by oral gavage.
The mice were evaluated individually for a latency reaction time on the hot plate. The temperature of the hot plate (Sorel, model DS37) was set at 55° C. […] The reaction time was recorded when one of these signs was noted. The cut off for latency response was 15 seconds so as to prevent damage to the paw tissue. […] The time intervals are typically 30, 60 or 120 minutes (or other).
For each time reading, the average reaction time of the control group was multiplied by 1.5. The reaction time of each treated animal was compared to the "control average×1.5".

[2] = test system: mice; experiment: Phenylquinone (PBQ) Writhing Assay; type: in vivo
Method: as §1
Phenylquinone Writhing Assay
The test was performed using CD #1 male mice (Charles River) weighing between 19 and 25 g. Animals were maintained in constant conditions of light, temperature and humidity. The animals were acclimatized for three days prior to experimentation. […]

## CC12CCCCSC(Cc3ccc(O)cc31)C2N (centres unmarked) [compound #9, 5,6,7,8,9,11,12-heptahydro-3-hydroxy-5-methyl-10-thia-5,11 methanobenzocyclodecen-13-amine]
[1]; 2.5 mg/kg, subcutaneous, after 15 minutes (FIG. 1)
  latency response time: almost maximum
[1]; 5 mg/kg, subcutaneous (FIG. 1), control approximately 7 seconds
  reaction time: about 19 seconds
[1]; subcutaneous (FIG. 1)
  latency response to radiant heat, dose dependence: dose dependent latency response
[2]; oral administration one hour prior to PBQ (FIG. 2)
  inhibition of the writhing response (PBQ): dose-dependent inhibition
[2]; s.c. administration twenty minutes prior to PBQ (FIG. 3)
  inhibition of the writhing response (PBQ): dose-dependent inhibition
